From patent US20240239792A1, “MODULATORS OF BCL-2 OR BCL-2/BCL-XL AND USES THEREOF” (APPICINE THERAPEUTICS (HK) LIMITED, priority 2021, published 2024)

How the values were obtained:
[1] = target: T1, BCL-2 (Homo sapiens, UniProt P10415); assay: HTRF BCL-2/BAK assay (Cisbio); assay type: binding; details: recombinant human Tag1-BCL-2 2 nM, Tag2-BAK 10 nM
T1 construct: purchased Cisbio 63ADK000CB01PEG
Description: (§1) Then the pre-mixed anti-Tag1-Eu^3+ and anti-tag2-XL665 were added to the plate and further incubated at room temperature for another 2 hours. The signals ([…]) were read on Envision 2104 instrument. The IC50 for each compound was derived from fitting the signal of 665/615 nM to the increasing compound concentration.
(§2) Using the above assays, the following compounds were tested.

[2] = target: T2, BCL-XL (Homo sapiens, UniProt Q07817); assay: HTRF BCL-XL/BAK assay (Cisbio); assay type: binding; details: recombinant human Tag1-BCL-XL 2 nM, Tag2-BAK 5 nM
T2 construct: purchased Cisbio 63ADK000CB04PEG
Description: as §1, §2

[3] = system: DOHH2 cells; assay: CellTiter-Glo cell proliferation assay, DOHH2 cells; assay type: cell-based; details: Homo sapiens, DOHH-2, 72 hours
Description: The CellTiter-Glo® Luminescent Cell Viability Assay (Promega, G7573) was used to study the cellular potency of disclosed compounds herein. The cells were harvested during the logarithmic growth period and counted with hemocytometer. The DOHH2 cells were seeded at 1.6*10^4 in 90 ul DMEM medium supplemented with 10% fetal bovine serum (FBS) (as RS4;11 cells were seeded at 4000 in 90 ul RPMI-1640 medium with 10% FBS) per well in 96-well plates and treated with 10 ul of a serial dilution of compounds disclosed herein (maximum concentration and dilution ratio determined by the results of pre-experiment may vary) for 72 hours in a 5% CO2 incubator at 37° C. Cell viability was assessed according to the manufacturer's recommendations. After the plates return to the room temperature, 100 ul of CellTiter-Glo® reagent was added to 100 ul of cell culture. The mixture was agitated on an orbital shaker for 2 minutes or placed it at room temperature for 10 minutes to allow cell lysis and stabilization of luminescent signals. Luminescent signals were recorded using Envision 2104 instrument. And GI50 values were then calculated.

T1 sequence (P10415 whole entry): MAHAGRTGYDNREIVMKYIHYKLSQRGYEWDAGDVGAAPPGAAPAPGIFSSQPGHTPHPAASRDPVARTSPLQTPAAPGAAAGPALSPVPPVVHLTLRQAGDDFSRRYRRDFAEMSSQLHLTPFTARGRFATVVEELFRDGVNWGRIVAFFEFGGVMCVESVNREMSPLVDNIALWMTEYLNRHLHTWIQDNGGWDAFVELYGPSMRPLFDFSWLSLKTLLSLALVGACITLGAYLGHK
T2 sequence (Q07817 whole entry): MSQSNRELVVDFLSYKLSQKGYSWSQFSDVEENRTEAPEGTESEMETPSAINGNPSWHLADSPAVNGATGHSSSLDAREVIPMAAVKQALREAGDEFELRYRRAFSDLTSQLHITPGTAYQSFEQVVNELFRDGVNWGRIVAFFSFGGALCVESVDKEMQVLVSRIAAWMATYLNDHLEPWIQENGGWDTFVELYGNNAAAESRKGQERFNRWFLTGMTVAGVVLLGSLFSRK

O=C(NS(=O)(=O)c1ccc(NC[C@@H]2CO[C@@H]3OCC[C@H]23)c([N+](=O)[O-])c1)c1ccc(N2CCN([C@@H]3CCCCc4c(Br)cc(F)cc43)CC2)cc1Oc1cnc2[nH]ccc2c1 (relative stereo) [Compound 81, 2-((1H-pyrrolo[2,3-b]pyridin-5-yl)oxy)-4-(4-((R)-1-bromo-3-fluoro-6,7,8,9-tetrahydro-5H-benzo[7]annulen-5-yl)piperazin-1-yl)-N-((4-((((3R,3aR,6aS)-hexahydrofuro[2,3-b]furan-3-yl)methyl)amino)-3-nitrophenyl)sulfonyl)benzamide]
IC50 [1]: 20 to 200 nM
IC50 [2]: 200 to 2000 nM
GI50 [3]: 500 to 5000 nM

O=C(NS(=O)(=O)c1ccc(NC[C@H]2CO[C@H]3OCC[C@@H]23)c([N+](=O)[O-])c1)c1ccc(N2CCN([C@@H]3CCCCc4c(Br)cc(F)cc43)CC2)cc1Oc1cnc2[nH]ccc2c1 (relative stereo) [Compound 82, 2-((1H-pyrrolo[2,3-b]pyridin-5-yl)oxy)-4-(4-((R)-1-bromo-3-fluoro-6,7,8,9-tetrahydro-5H-benzo[7]annulen-5-yl)piperazin-1-yl)-N-((4-((((3S,3aS,6aR)-hexahydrofuro[2,3-b]furan-3-yl)methyl)amino)-3-nitrophenyl)sulfonyl)benzamide]
IC50 [1]: < 20 nM
IC50 [2]: 200 to 2000 nM
GI50 [3]: 500 to 5000 nM

O=C(NS(=O)(=O)c1cccc([N+](=O)[O-])c1)c1ccc(N2CCN(C3CCCCc4ccccc43)CC2)cc1Oc1cnc2[nH]ccc2c1 (stereo not drawn) [Compound 5, 2-((1H-pyrrolo[2,3-b]pyridin-5-yl)oxy)-N-((3-nitrophenyl)sulfonyl)-4-(4-(6,7,8,9-tetrahydro-5H-benzo[7]annulen-5-yl)piperazin-1-yl)benzamide]
IC50 [1]: 20 to 200 nM
IC50 [2]: 200 to 2000 nM
GI50 [3]: 500 to 5000 nM

O=C(NS(=O)(=O)c1ccc(NCC2CCOCC2)c([N+](=O)[O-])c1)c1ccc(N2CCN(C3COCc4ccccc43)CC2)cc1Oc1cnc2[nH]ccc2c1 (stereo not drawn) [Compound 12, 2-((1H-pyrrolo[2,3-b]pyridin-5-yl)oxy)-4-(4-(isochroman-4-yl)piperazin-1-yl)-N-((3-nitro-4-(((tetrahydro-2H-pyran-4-yl)methyl)amino)phenyl)sulfonyl)benzamide]
IC50 [1]: 20 to 200 nM
IC50 [2]: > 2000 nM
GI50 [3]: 500 to 5000 nM

O=C(NS(=O)(=O)c1cccc([N+](=O)[O-])c1)c1ccc(N2CCN(C3CCCc4cccc(-c5ccc(Cl)cc5)c43)CC2)cc1Oc1cnc2[nH]ccc2c1 (stereo not drawn) [Compound 13, 2-((1H-pyrrolo[2,3-b]pyridin-5-yl)oxy)-4-(4-(8-(4-chlorophenyl)-1,2,3,4-tetrahydronaphthalen-1-yl)piperazin-1-yl)-N-((3-nitrophenyl)sulfonyl)benzamide]
IC50 [1]: 20 to 200 nM
IC50 [2]: 200 to 2000 nM
GI50 [3]: 500 to 5000 nM

O=C(NS(=O)(=O)c1ccc(NCC2CCOCC2)c([N+](=O)[O-])c1)c1ccc(N2CCN(C3CCCc4cccc(-c5ccc(Cl)cc5)c43)CC2)cc1Oc1cnc2[nH]ccc2c1 (stereo not drawn) [Compound 16, 2-((1H-pyrrolo[2,3-b]pyridin-5-yl)oxy)-4-(4-(8-(4-chlorophenyl)-1,2,3,4-tetrahydronaphthalen-1-yl)piperazin-1-yl)-N-((3-nitro-4-(((tetrahydro-2H-pyran-4-yl)methyl)amino)phenyl)sulfonyl)benzamide]
IC50 [1]: < 20 nM
IC50 [2]: 200 to 2000 nM
GI50 [3]: 500 to 5000 nM

O=C(NS(=O)(=O)c1ccc(NCC2CCOCC2)c([N+](=O)[O-])c1)c1ccc(N2CCN(C3CCCCc4c(Br)cccc43)CC2)cc1Oc1cnc2[nH]ccc2c1 (stereo not drawn) [Compound 18, 2-((1H-pyrrolo[2,3-b]pyridin-5-yl)oxy)-4-(4-(1-bromo-6,7,8,9-tetrahydro-5H-benzo[7]annulen-5-yl)piperazin-1-yl)-N-((3-nitro-4-(((tetrahydro-2H-pyran-4-yl)methyl)amino)phenyl)sulfonyl)benzamide]
IC50 [1]: < 20 nM
IC50 [2]: 20 to 200 nM
GI50 [3]: < 50 nM

O=C(NS(=O)(=O)c1ccc(NCC2CCOCC2)c([N+](=O)[O-])c1)c1ccc(N2CCN(C3CCCCc4c(-c5ccccc5)cccc43)CC2)cc1Oc1cnc2[nH]ccc2c1 (stereo not drawn) [Compound 19, 2-((1H-pyrrolo[2,3-b]pyridin-5-yl)oxy)-N-((3-nitro-4-(((tetrahydro-2H-pyran-4-yl)methyl)amino)phenyl)sulfonyl)-4-(4-(1-phenyl-6,7,8,9-tetrahydro-5H-benzo[7]annulen-5-yl)piperazin-1-yl)benzamide]
IC50 [1]: < 20 nM
IC50 [2]: > 2000 nM
GI50 [3]: 500 to 5000 nM

Cc1cccc2c1CCCCC2N1CCN(c2ccc(C(=O)NS(=O)(=O)c3ccc(NCC4CCOCC4)c([N+](=O)[O-])c3)c(Oc3cnc4[nH]ccc4c3)c2)CC1 (stereo not drawn) [Compound 20, 2-((1H-pyrrolo[2,3-b]pyridin-5-yl)oxy)-4-(4-(1-methyl-6,7,8,9-tetrahydro-5H-benzo[7]annulen-5-yl)piperazin-1-yl)-N-((3-nitro-4-(((tetrahydro-2H-pyran-4-yl)methyl)amino)phenyl)sulfonyl)benzamide]
IC50 [1]: < 20 nM
IC50 [2]: 200 to 2000 nM
GI50 [3]: 50 to 500 nM

O=C(NS(=O)(=O)c1ccc(NCC2CCOCC2)c([N+](=O)[O-])c1)c1ccc(N2CCN(C3CCCCc4ccc(Br)cc43)CC2)cc1Oc1cnc2[nH]ccc2c1 (stereo not drawn) [Compound 21, 2-((1H-pyrrolo[2,3-b]pyridin-5-yl)oxy)-4-(4-(3-bromo-6,7,8,9-tetrahydro-5H-benzo[7]annulen-5-yl)piperazin-1-yl)-N-((3-nitro-4-(((tetrahydro-2H-pyran-4-yl)methyl)amino)phenyl)sulfonyl)benzamide]
IC50 [1]: < 20 nM
IC50 [2]: > 2000 nM
GI50 [3]: 50 to 500 nM

O=C(NS(=O)(=O)c1ccc(NCC2CCOCC2)c([N+](=O)[O-])c1)c1ccc(N2CCN(C3CCCCc4cc(Br)ccc43)CC2)cc1Oc1cnc2[nH]ccc2c1 (stereo not drawn) [Compound 23, 2-((1H-pyrrolo[2,3-b]pyridin-5-yl)oxy)-4-(4-(2-bromo-6,7,8,9-tetrahydro-5H-benzo[7]annulen-5-yl)piperazin-1-yl)-N-((3-nitro-4-(((tetrahydro-2H-pyran-4-yl)methyl)amino)phenyl)sulfonyl)benzamide]
IC50 [1]: 20 to 200 nM
IC50 [2]: 200 to 2000 nM
GI50 [3]: 500 to 5000 nM

O=C(NS(=O)(=O)c1ccc(NCC2CCOCC2)c([N+](=O)[O-])c1)c1ccc(N2CCN(C3CCCCc4cc(Cl)ccc43)CC2)cc1Oc1cnc2[nH]ccc2c1 (stereo not drawn) [Compound 25, 2-((1H-pyrrolo[2,3-b]pyridin-5-yl)oxy)-4-(4-(2-chloro-6,7,8,9-tetrahydro-5H-benzo[7]annulen-5-yl)piperazin-1-yl)-N-((3-nitro-4-(((tetrahydro-2H-pyran-4-yl)methyl)amino)phenyl)sulfonyl)benzamide]
IC50 [1]: 20 to 200 nM
IC50 [2]: 200 to 2000 nM
GI50 [3]: 50 to 500 nM

O=C(NS(=O)(=O)c1ccc(NCC2CCOCC2)c([N+](=O)[O-])c1)c1ccc(N2CCN(C3CCCCc4ccc(Cl)cc43)CC2)cc1Oc1cnc2[nH]ccc2c1 (stereo not drawn) [Compound 26, 2-((1H-pyrrolo[2,3-b]pyridin-5-yl)oxy)-4-(4-(3-chloro-6,7,8,9-tetrahydro-5H-benzo[7]annulen-5-yl)piperazin-1-yl)-N-((3-nitro-4-(((tetrahydro-2H-pyran-4-yl)methyl)amino)phenyl)sulfonyl)benzamide]
IC50 [1]: < 20 nM
IC50 [2]: > 2000 nM
GI50 [3]: 50 to 500 nM

CC(C)(C)OC(=O)N1CCC2(CC1)CC(CNc1ccc(S(=O)(=O)NC(=O)c3ccc(N4CCN([C@@H]5CCCCc6c(Cl)cccc65)CC4)cc3)cc1[N+](=O)[O-])C2 [Compound 116, tert-butyl (R)-2-(((4-(N-(4-(4-(1-chloro-6,7,8,9-tetrahydro-5H-benzo[7]annulen-5-yl)piperazin-1-yl)benzoyl)sulfamoyl)-2-nitrophenyl)amino)methyl)-7-azaspiro[3.5]nonane-7-carboxylate]
IC50 [1]: > 2000 nM
IC50 [2]: > 2000 nM

CC(=O)N1CCC2(CC1)CC(CNc1ccc(S(=O)(=O)NC(=O)c3ccc(N4CCN([C@@H]5CCCCc6c(Cl)cccc65)CC4)cc3)cc1[N+](=O)[O-])C2 [Compound 118, (R)-N-((4-(((7-acetyl-7-azaspiro[3.5]nonan-2-yl)methyl)amino)-3-nitrophenyl)sulfonyl)-4-(4-(1-chloro-6,7,8,9-tetrahydro-5H-benzo[7]annulen-5-yl)piperazin-1-yl)benzamide]
IC50 [1]: 200 to 2000 nM
IC50 [2]: > 2000 nM

O=C(NS(=O)(=O)c1ccc(NCC2CC3(CCC(F)(F)CC3)C2)c([N+](=O)[O-])c1)c1ccc(N2CCN([C@@H]3CCCCc4c(Cl)cccc43)CC2)cc1Oc1cnc2[nH]ccc2c1 [Compound 135, (R)-2-((1H-pyrrolo[2,3-b]pyridin-5-yl)oxy)-4-(4-(1-chloro-6,7,8,9-tetrahydro-5H-benzo[7]annulen-5-yl)piperazin-1-yl)-N-((4-(((7,7-difluorospiro[3.5]nonan-2-y1)methyl)amino)-3-nitrophenyl)sulfonyl)benzamide]
IC50 [1]: < 20 nM
GI50 [3]: < 50 nM
